# In the NIST ThermoML archive (doi:10.1021/je100358e):
# ± gives the expanded uncertainty stated by the source.
# Key:
# [1] = Molar enthalpy of transition or fusion; settings: Crystal; DSC
# [2] = Crystal; visual observation
compound,measurement,setting,value
Oc1ccc2ccccc2c1 [2-hydroxynaphthalene],Molar enthalpy of transition or fusion,[1],5.04 ± 0.717 kcal/mol
same,Normal melting temperature,[2],121.20 ± 1.5 °C
